From ChEMBL document CHEMBL5352433, “Design, synthesis, and biological evaluation of low-toxic lappaconitine derivatives as potential analgesics” (Eur J Med Chem, 2022) come the findings set out here.

The target of data set [1] is T1, Voltage-gated inwardly rectifying potassium channel KCNH2 (Homo sapiens, UniProt Q12809). Put plainly: Inhibition of hERG expressed in HEK cells assessed as Rb+ efflux ratio at 1 mg/L incubated for 4 mins (reference value: 79.71 to 94.98 %). It is filed as toxicity, cell-based. Set-up: scale not given: the % may be the effect or the level left. Conditions: at 1 µg/mL.
T1 sequence (Q12809 whole entry): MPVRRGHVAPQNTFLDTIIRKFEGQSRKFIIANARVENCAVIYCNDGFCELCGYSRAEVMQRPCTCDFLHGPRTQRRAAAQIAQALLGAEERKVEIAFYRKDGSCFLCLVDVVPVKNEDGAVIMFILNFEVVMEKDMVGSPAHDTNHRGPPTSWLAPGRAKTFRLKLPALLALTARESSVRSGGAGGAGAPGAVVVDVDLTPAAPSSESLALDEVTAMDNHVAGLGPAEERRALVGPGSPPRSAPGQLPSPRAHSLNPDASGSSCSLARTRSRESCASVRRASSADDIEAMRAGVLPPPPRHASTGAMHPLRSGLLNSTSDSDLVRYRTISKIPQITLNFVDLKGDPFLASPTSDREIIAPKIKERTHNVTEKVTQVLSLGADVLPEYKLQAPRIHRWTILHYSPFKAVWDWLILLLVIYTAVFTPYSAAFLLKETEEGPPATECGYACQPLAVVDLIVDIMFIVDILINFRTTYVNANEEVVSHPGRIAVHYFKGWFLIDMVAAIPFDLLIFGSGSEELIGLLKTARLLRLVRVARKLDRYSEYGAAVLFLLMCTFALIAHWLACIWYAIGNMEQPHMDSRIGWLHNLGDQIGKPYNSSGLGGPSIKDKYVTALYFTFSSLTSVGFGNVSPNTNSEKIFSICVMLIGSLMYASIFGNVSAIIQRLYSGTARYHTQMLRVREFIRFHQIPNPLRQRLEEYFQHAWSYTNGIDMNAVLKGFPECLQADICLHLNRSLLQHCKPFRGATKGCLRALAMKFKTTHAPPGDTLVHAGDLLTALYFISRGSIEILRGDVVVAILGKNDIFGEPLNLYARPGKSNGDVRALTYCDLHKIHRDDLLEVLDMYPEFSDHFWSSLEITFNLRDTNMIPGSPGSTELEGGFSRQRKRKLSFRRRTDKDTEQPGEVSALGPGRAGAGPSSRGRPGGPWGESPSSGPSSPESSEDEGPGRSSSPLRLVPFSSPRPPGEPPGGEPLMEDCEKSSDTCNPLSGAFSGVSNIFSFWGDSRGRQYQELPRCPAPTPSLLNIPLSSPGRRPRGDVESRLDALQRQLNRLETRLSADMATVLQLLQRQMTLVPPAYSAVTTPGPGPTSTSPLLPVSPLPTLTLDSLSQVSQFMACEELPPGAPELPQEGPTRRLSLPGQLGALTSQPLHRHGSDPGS

The target of data set [2] is T1, Voltage-gated inwardly rectifying potassium channel KCNH2. Put plainly: Inhibition of hERG expressed in HEK cells assessed as Rb+ efflux ratio at 10 mg/L incubated for 4 mins (reference value: 79.71 to 94.98 %). The class given is toxicity, cell-based. Set-up: scale not given: the % may be the effect or the level left. Conditions: at 10 µg/mL. In general terms: hERG is a cardiac potassium channel; its block is linked to QT prolongation.

Data set [3] shares this target. The experiment in a line: Inhibition of hERG expressed in HEK cells assessed as Rb+ efflux ratio at 100 mg/L incubated for 4 mins (reference value: 79.71 to 94.98 %). As to conditions: at 100 µg/mL. Set-up: scale not given: the % may be the effect or the level left. It is filed as toxicity, cell-based.
Data set [4] is described as follows: Acute toxicity in sc dosed Kunming mouse assessed as mortality rate measured after 24 hrs. It is filed as organism-based. Conditions: in vivo.
Data set [5] concerns Mus musculus. The experiment in a line: Analgesic activity against acetic acid-induced Kunming writhing mouse model assessed as inhibition of writhing at 3.5 mg/kg, sc pretreated with compound for 15 mins followed by acetic acid addition and measured after 15 mins relative to control. It is filed as functional. Conditions: 0.5 h, time 30 min. A general note: In writhing tests, fewer writhes than in controls are read as antinociception.

Data set [6] relates to Mus musculus. The experiment in a line: Analgesic activity against sc dosed acetic acid-induced Kunming writhing mouse model assessed as inhibition of writhing pretreated with compound for 15 mins followed by acetic acid addition and measured after 15 mins. The class given is functional. As to conditions: 0.5 h, time 30 min.
Data set [7] in a line: Therapeutic index, ratio of LD50 for acute toxicity in sc dosed Kunming mouse to ratio of ED50 for analgesic activity against sc dosed acetic acid-induced Kunming writhing mouse model. It is filed as organism-based. Conditions: in vivo, read-out: TI.
The subject of data set [8] is Mus musculus. Put plainly: Analgesic activity against acetic acid-induced Kunming writhing mouse model assessed as inhibition of writhing at 10 mg/kg, sc pretreated with compound for 15 mins followed by acetic acid addition and measured after 15 mins relative to control. The class given is functional. As to conditions: 0.5 h, time 30 min.
Data set [9] is described as follows: Drug metabolism in sc dosed acetic acid-induced Kunming writhing mouse model assessed as metabolites in feces. It is filed as ADME, organism-based. As to conditions: in vivo.
The nature of data set [10]: Drug metabolism in sc dosed acetic acid-induced Kunming writhing mouse model assessed as metabolites in urine. The class given is ADME, organism-based. Conditions: in vivo.

Structures are written as SMILES.

`CCN1C[C@]2(OC(=O)c3ccccc3N)CC[C@H](OC)[C@]34C1[C@H](C[C@H]23)[C@@]1(O)C[C@H](OC)[C@H]2C[C@@H]4[C@]1(O)[C@H]2OC`: the figures for the Activity in data set [1], in [2] and in data set [3] were 96.05%, 92.35% and 65.7%, respectively.
Regarding `CCN1C[C@]2(OC(=O)c3ccccc3NC(C)=O)CC[C@H](OC)[C@]34C1[C@H](C[C@H]23)[C@@]1(O)C[C@H](OC)[C@H]2C[C@@H]4[C@]1(O)[C@H]2OC`, the LD50 (commonly the dose expected to kill half of the subjects tested) at 24 h in data set [4] came to 11.7 mg/kg. In addition, the inhibition in vivo (commonly the change of the read-out against control, counted positive when it falls) at 3.5 mg/kg in the data set on Mus musculus [5] amounted to 56.6%. For the same compound, the ED50 (usually the midpoint of the dose-response relation) with Mus musculus [6] came out at 3.5 mg/kg.
As for `CCN1C[C@]2(OC(=O)c3ccccc3NC(=O)c3ccc(OC(C)C)cc3)CC[C@H](OC)[C@]34C1[C@H](C[C@H]23)[C@@]1(O)C[C@H](OC)[C@H]2C[C@@H]4[C@]1(O)[C@H]2OC`, the LD50 at 24 h in data set [4] was 196 mg/kg. The selectivity ratio in data set [7] was determined as 24.2. For the same compound, the ED50 in the data set on Mus musculus [6] came out at 8.1 mg/kg. Moreover, in the data set on Mus musculus [8], the inhibition in vivo at 10 mg/kg turned out to be 51.1%.
For the compound `CCN1C[C@]2(OC(=O)c3ccccc3NS(=O)(=O)c3ccccc3OC)CC[C@H](OC)[C@]34C1[C@H](C[C@H]23)[C@@]1(O)C[C@H](OC)[C@H]2C[C@@H]4[C@]1(O)[C@H]2OC`, the LD50 at 24 h in data set [4] came to 300 mg/kg. For the same compound, the selectivity ratio in data set [7] turned out to be 54.5. Also, the Activity is given as 80.88% in [1], 65.13% in [2] and 50.83% in data set [3]. In addition, the Drug metabolism entry in [9] and in data set [10] was “Metabolite_Detected” each time. In the data set with Mus musculus [6], the ED50 was found to be 5.5 mg/kg. For the same compound, the inhibition in vivo at 10 mg/kg in the data set on Mus musculus [8] was 71.2%.
As to `CCN1C[C@]2(OC(=O)c3ccccc3NS(=O)(=O)c3cccc4cccnc34)CC[C@H](OC)[C@]34C1[C@H](C[C@H]23)[C@@]1(O)C[C@H](OC)[C@H]2C[C@@H]4[C@]1(O)[C@H]2OC`, in the data set on Mus musculus [8], the inhibition in vivo at 10 mg/kg turned out to be 42.4%.
Turning to `CCN1C[C@]2(OC(=O)c3ccccc3NS(=O)(=O)c3ccccc3)CC[C@H](OC)[C@]34C1[C@H](C[C@H]23)[C@@]1(O)C[C@H](OC)[C@H]2C[C@@H]4[C@]1(O)[C@H]2OC`, the LD50 at 24 h in [4] is over 600 mg/kg. Also, in data set [7], the selectivity ratio is over 98.3. For the same compound, the Activity in [1] was determined as 88.87%; in data set [2], 72.11%; in [3], 44.12%. Further, the Drug metabolism entry in data set [9] and in [10] was “Metabolite_Detected” each time. Further, the ED50 with Mus musculus [6] was determined as 6.1 mg/kg. Moreover, the inhibition in vivo at 10 mg/kg in the data set with Mus musculus [8] is 84.3%.
Take `CCN1C[C@]2(OC(=O)c3ccccc3NS(=O)(=O)c3cccnc3)CC[C@H](OC)[C@]34C1[C@H](C[C@H]23)[C@@]1(O)C[C@H](OC)[C@H]2C[C@@H]4[C@]1(O)[C@H]2OC`: the inhibition in vivo at 10 mg/kg in the data set with Mus musculus [8] came to 32.3%.
Regarding `CCN1C[C@]2(OC(=O)c3ccccc3NC(=O)C3CC3)CC[C@H](OC)[C@]34C1[C@H](C[C@H]23)[C@@]1(O)C[C@H](OC)[C@H]2C[C@@H]4[C@]1(O)[C@H]2OC`, the inhibition in vivo at 3.5 mg/kg with Mus musculus [5] was found to be 33.5%.
Take `CCN1C[C@]2(OC(=O)c3ccccc3NS(=O)(=O)c3cccc4ccccc34)CC[C@H](OC)[C@]34C1[C@H](C[C@H]23)[C@@]1(O)C[C@H](OC)[C@H]2C[C@@H]4[C@]1(O)[C@H]2OC`: the inhibition in vivo at 10 mg/kg in the data set on Mus musculus [8] was 49.3%.
`CCN1C[C@]2(OC(=O)c3ccccc3NC(=O)CC(C)(C)C)CC[C@H](OC)[C@]34C1[C@H](C[C@H]23)[C@@]1(O)C[C@H](OC)[C@H]2C[C@@H]4[C@]1(O)[C@H]2OC`: in the data set on Mus musculus [5], the inhibition in vivo at 3.5 mg/kg was 24.9%.
Consider `CCN1C[C@]2(OC(=O)c3ccccc3NS(=O)(=O)c3cccc4c(N(C)C)cccc34)CC[C@H](OC)[C@]34C1[C@H](C[C@H]23)[C@@]1(O)C[C@H](OC)[C@H]2C[C@@H]4[C@]1(O)[C@H]2OC`, for which the inhibition in vivo at 10 mg/kg in the data set with Mus musculus [8] was found to be 42.5%.
Take `C/C=C/C(=O)Nc1ccccc1C(=O)O[C@@]12CC[C@H](OC)[C@]34C([C@H](C[C@H]13)[C@@]1(O)C[C@H](OC)[C@H]3C[C@@H]4[C@]1(O)[C@H]3OC)N(CC)C2`: the inhibition in vivo at 3.5 mg/kg with Mus musculus [5] came to 24.4%.
Take `CCN1C[C@]2(OC(=O)c3ccccc3NC(=O)c3ccc(OC)cc3)CC[C@H](OC)[C@]34C1[C@H](C[C@H]23)[C@@]1(O)C[C@H](OC)[C@H]2C[C@@H]4[C@]1(O)[C@H]2OC`: the LD50 at 24 h in data set [4] came out at 296 mg/kg. The selectivity ratio in [7] stood at 67.4. Further, the Activity in [1] came out at 77%; in data set [2] it was 76.58%; in data set [3], 69.69%. The ED50 in the data set with Mus musculus [6] was 4.4 mg/kg. In addition, the inhibition in vivo at 10 mg/kg with Mus musculus [8] was 62.8%.
`CCN1C[C@]2(OC(=O)c3ccccc3NS(=O)(=O)c3ccc4ccccc4c3)CC[C@H](OC)[C@]34C1[C@H](C[C@H]23)[C@@]1(O)C[C@H](OC)[C@H]2C[C@@H]4[C@]1(O)[C@H]2OC`: in the data set with Mus musculus [8], the inhibition in vivo at 10 mg/kg was determined as 28.4%.
For `CCOc1ccc(C(=O)Nc2ccccc2C(=O)O[C@@]23CC[C@H](OC)[C@]45C([C@H](C[C@H]24)[C@@]2(O)C[C@H](OC)[C@H]4C[C@@H]5[C@]2(O)[C@H]4OC)N(CC)C3)cc1`, the LD50 at 24 h in data set [4] worked out at 315 mg/kg. For the same compound, the selectivity ratio in data set [7] is 47.7. Further, the Activity in data set [1] was 79.38%; in data set [2] it was 80.07%; in data set [3], 76.45%. Moreover, in the data set on Mus musculus [6], the ED50 stood at 6.6 mg/kg. The inhibition in vivo at 10 mg/kg with Mus musculus [8] was determined as 62.8%.
On to `CCCOc1ccc(C(=O)Nc2ccccc2C(=O)O[C@@]23CC[C@H](OC)[C@]45C([C@H](C[C@H]24)[C@@]2(O)C[C@H](OC)[C@H]4C[C@@H]5[C@]2(O)[C@H]4OC)N(CC)C3)cc1`, for which the LD50 at 24 h in data set [4] was 214 mg/kg. In addition, the selectivity ratio in data set [7] is 20.9. Moreover, the 50% effective dose (ED50) in the data set on Mus musculus [6] came out at 10.2 mg/kg. In addition, the inhibition in vivo at 10 mg/kg with Mus musculus [8] worked out at 48.4%.
On to `CCN1C[C@]2(OC(=O)c3ccccc3NC(=O)c3ccc(N(C)C)cc3)CC[C@H](OC)[C@]34C1[C@H](C[C@H]23)[C@@]1(O)C[C@H](OC)[C@H]2C[C@@H]4[C@]1(O)[C@H]2OC`, for which the LD50 at 24 h in data set [4] turned out to be 300 mg/kg. Also, the selectivity ratio in data set [7] is 48.5. In addition, the Activity in data set [1] is 87.34%; in [2] it was 85.86%; in [3], 84.7%. The Drug metabolism result in [9] and in data set [10] was “Metabolite_Detected” in each case. Moreover, the ED50 with Mus musculus [6] stood at 6.2 mg/kg. Moreover, the inhibition in vivo at 10 mg/kg in the data set on Mus musculus [8] stood at 62.1%.
Consider `CCN1C[C@]2(OC(=O)c3ccccc3NS(=O)(=O)c3ccccn3)CC[C@H](OC)[C@]34C1[C@H](C[C@H]23)[C@@]1(O)C[C@H](OC)[C@H]2C[C@@H]4[C@]1(O)[C@H]2OC`, for which the LD50 at 24 h in data set [4] is over 400 mg/kg. In data set [7], the selectivity ratio was over 85.1. In addition, the Activity is given as 95.97% in [1], 88.42% in data set [2] and 73.6% in data set [3]. For the same compound, the Drug metabolism result in data set [9] and in data set [10] was “Metabolite_Detected” throughout. Moreover, in the data set with Mus musculus [6], the ED50 amounted to 4.7 mg/kg. In addition, the inhibition in vivo at 10 mg/kg with Mus musculus [8] was 71.2%.
